In data set [1] the test system is Candida albicans. Kind of data set: Antifungal activity against Candida albicans SC5314 assessed as reduction in fungal growth incubated for 48 hrs by liquid based microdilution method. The data set is classed as functional.
In data set [2] the test system is Candida albicans. As to the kind of experiment: Antifungal activity against Candida albicans 0304103 assessed as reduction in fungal growth incubated for 48 hrs by liquid based microdilution method. The data set is classed as functional. A general note: Broth dilution looks for growth in wells or tubes with falling amounts of substance.
Data set [3] can be described thus: Antifungal activity against Cryptococcus gattii VGI ATCC 14116 assessed as reduction in fungal growth incubated for 72 hrs by liquid based microdilution method. Type of data set: functional.
Data set [4] deals with Nakaseomyces glabratus. Kind of data set: Antifungal activity against Candida glabrata 9073 assessed as reduction in fungal growth incubated for 48 hrs by liquid based microdilution method. Type of data set: functional.
The test system of data set [5] is Cryptococcus neoformans. Kind of data set: Antifungal activity against Cryptococcus neoformans ATCC 34877 assessed as reduction in fungal growth incubated for 72 hrs by liquid based microdilution method. Type of data set: functional.
The subject of data set [6] is Candida albicans. Kind of data set: Synergistic antifungal activity against Candida albicans 0304103 assessed as fractional inhibitory concentration index by measuring ratio of MIC80 for compound and synergetic / MIC80 for compound alone + MIC80 for fluconazole synergetic / MIC80 for fluconazole alone. Type of data set: functional.
In data set [7] the test system is Candida albicans. As to the kind of experiment: Synergistic antifungal activity against Candida albicans 0304103 assessed as inhibition of fungal growth incubated for 48 hrs in presence of fluconazole by checkerboard microdilution assay. The data set is classed as functional.
The subject of data set [8] is Cryptococcus neoformans. Kind of data set: Antifungal activity against Cryptococcus neoformans H99 assessed as reduction in fungal growth incubated for 72 hrs by liquid based microdilution method. Type of data set: functional.
Data set [9] concerns Candida tropicalis. Kind of data set: Antifungal activity against Candida tropicalis 10186 assessed as reduction in fungal growth incubated for 48 hrs by liquid based microdilution method. Type of data set: functional.
Data set [10] relates to Candida albicans. As to the kind of experiment: Antagonistic antifungal activity against Candida albicans 0304103 assessed as fractional inhibitory concentration index by measuring ratio of MIC80 for compound and synergetic / MIC80 for compound alone + MIC80 for fluconazole synergetic / MIC80 for fluconazole alone. The data set is classed as functional.
The test system of data set [11] is Candida albicans. As to the kind of experiment: Antifungal activity against Candida albicans assessed as reduction in fungal growth incubated for 24 hrs by broth microdilution method. The data set is classed as functional.
The test system of data set [12] is Cryptococcus neoformans. As to the kind of experiment: Antifungal activity against Cryptococcus neoformans assessed as reduction in fungal growth incubated for 24 hrs by broth microdilution method. Type of data set: functional.
A short description of data set [13]: Effective permeability of the compound across blood brain barrier incubated for 12 hrs by PAMPA assay. The settings on record: read-out: Peff. Type of data set: ADME.

From ChEMBL document CHEMBL5518232, “Discovery of New Tricyclic Oxime Sampangine Derivatives as Potent Antifungal Agents for the Treatment of Cryptococcosis and Candidiasis” (J Med Chem, 2024) come the findings set out here.

SMILES strings stand for the structures. In brackets after ≈: the same amount, converted by molar mass. Bounds are passed on as bounds.

In general, MIC80 refers to the lowest concentration that inhibits either 80% of growth or 80% of the strains tested, depending on the study. As to `CCO/N=C1/c2ccsc2C(=O)c2c(C)noc21`, the MIC80 was above 64 µg/mL in data set [1]; above 64 µg/mL in data set [2]; 4 µg/mL (≈ 15.3 µM) in [3]; above 64 µg/mL in data set [4]; 2 µg/mL (≈ 7.63 µM) in data set [5]; 2 µg/mL in data set [7]. The MIC80 was 0.13 µg/mL (≈ 0.496 µM) in data set [8] and above 64 µg/mL in data set [9]. In addition, the “fractional inhibitory concentration index (FICI)” value in data set [6] stood at 0.047.
For the compound `CO/N=C1/c2ccsc2C(=O)c2ccsc21`, the MIC80 in data set [1] is above 64 µg/mL; in [2] it was above 64 µg/mL; in data set [4] it was above 64 µg/mL; in [7] it was 2 µg/mL; in [8], 64 µg/mL (≈ 257 µM); in data set [9] it was above 64 µg/mL. In addition, the “fractional inhibitory concentration index (FICI)” value in data set [6] worked out at 0.047.
For the compound `CCCc1noc2c1C(=O)c1sccc1/C2=N/OC`, the MIC80 in data set [1] was above 64 µg/mL; in [2] it was above 64 µg/mL; in [3] it was 16 µg/mL (≈ 57.9 µM); in data set [4], above 64 µg/mL; in data set [5] it was 2 µg/mL (≈ 7.24 µM); in data set [7], 8 µg/mL. The MIC80 is 4 µg/mL (≈ 14.5 µM) in data set [8] and above 64 µg/mL in data set [9]. For the same compound, in [6], the “fractional inhibitory concentration index (FICI)” value turned out to be 0.25.
As to `CO/N=C1/c2ccsc2/C(=N\OC)c2ccsc21`, the MIC80 was above 64 µg/mL in [1]; above 64 µg/mL in [2]; above 64 µg/mL in data set [4]; above 64 µg/mL in data set [7]; 32 µg/mL (≈ 115 µM) in data set [8]; above 64 µg/mL in [9]. The “fractional inhibitory concentration index (FICI)” value in [10] is above 2.
Consider `CCO/N=C1/c2ccccc2C(=O)c2c(C)noc21`, for which the MIC80 in [1] is above 64 µg/mL; in data set [2] it was above 64 µg/mL; in [4], above 64 µg/mL; in data set [7], 2 µg/mL; in [8], above 64 µg/mL; in data set [9] it was above 64 µg/mL. Besides, the “fractional inhibitory concentration index (FICI)” value in data set [6] amounted to 0.039.
Turning to `O=C1c2ccccc2-c2nccc3ccnc1c23` [SAMPANGINE], the MIC80 worked out at 0.5 µg/mL (≈ 2.15 µM) in data set [11] and 2 µg/mL (≈ 8.61 µM) in data set [12].
For `Cc1noc2c1C(=O)c1sccc1C2=O`, the MIC80 in [1] was 0.13 µg/mL (≈ 0.593 µM); in data set [2] it was 0.5 µg/mL (≈ 2.28 µM); in data set [4] it was 1 µg/mL (≈ 4.56 µM); in data set [8], 0.031 µg/mL (≈ 0.141 µM); in data set [9] it was 2 µg/mL (≈ 9.12 µM). Besides, the Papp at 12 h in data set [13] turned out to be 7.69 ×10⁻⁶ cm/s.
Turning to `CO/N=C1/c2ccoc2C(=O)c2c(C)noc21`, the MIC80 in data set [1] is above 64 µg/mL; in [2], above 64 µg/mL; in [3], 8 µg/mL (≈ 34.5 µM); in data set [4] it was above 64 µg/mL; in data set [5], 1 µg/mL (≈ 4.31 µM); in data set [7], 4 µg/mL. Besides, the MIC80 in [8] is 2 µg/mL (≈ 8.61 µM); in [9], above 64 µg/mL. In data set [6], the “fractional inhibitory concentration index (FICI)” value is 0.094.
As to `CO/N=C1/c2ccccc2C(=O)c2c(C)noc21`, the MIC80 was above 64 µg/mL in [1]; above 64 µg/mL in data set [2]; above 64 µg/mL in data set [4]; 2 µg/mL in data set [7]; 32 µg/mL (≈ 132 µM) in data set [8]; above 64 µg/mL in data set [9]. Further, the “fractional inhibitory concentration index (FICI)” value in data set [6] is listed as 0.047.
On to `CCc1noc2c1C(=O)c1sccc1/C2=N/OC`, for which the MIC80 in data set [1] is above 64 µg/mL; in data set [2] it was above 64 µg/mL; in data set [3] it was 4 µg/mL (≈ 15.3 µM); in data set [4], above 64 µg/mL; in data set [5], 0.13 µg/mL (≈ 0.496 µM); in data set [7] it was 2 µg/mL. Besides, the values for the MIC80 in [8] and in data set [9] were 0.13 µg/mL (≈ 0.496 µM) and above 64 µg/mL, respectively. Further, the “fractional inhibitory concentration index (FICI)” value in data set [6] is on record as 0.047.
Take `Cc1noc2c1C(=O)c1ccccc1/C2=N/O`: the MIC80 in data set [1] was above 64 µg/mL; in [2] it was above 64 µg/mL; in data set [3], 16 µg/mL (≈ 70.1 µM); in [4] it was above 64 µg/mL; in data set [5] it was 8 µg/mL (≈ 35.1 µM); in data set [7], 2 µg/mL. In addition, the MIC80 in data set [8] is 8 µg/mL (≈ 35.1 µM); in [9], above 64 µg/mL. Moreover, the “fractional inhibitory concentration index (FICI)” value in [6] stood at 0.063.
As to `Cc1noc2c1C(=O)c1sccc1/C2=N/O`, the MIC80 in data set [1] was above 64 µg/mL; in data set [2] it was above 64 µg/mL; in data set [3], 4 µg/mL (≈ 17.1 µM); in [4], above 64 µg/mL; in data set [5], 8 µg/mL (≈ 34.2 µM); in [7], 2 µg/mL. Moreover, the MIC80 was 0.25 µg/mL (≈ 1.07 µM) in data set [8] and above 64 µg/mL in [9]. Further, the “fractional inhibitory concentration index (FICI)” value in data set [6] is on record as 0.094.
Regarding `Cc1noc2c1C(=O)c1sccc1/C2=N/OC(C)C`, the MIC80 in [1] was above 64 µg/mL; in data set [2], above 64 µg/mL; in [4] it was above 64 µg/mL; in [7] it was 2 µg/mL; in data set [8] it was above 64 µg/mL; in [9], above 64 µg/mL. Further, the “fractional inhibitory concentration index (FICI)” value in data set [6] stood at 0.063.
For `Cc1ccnc2c1C(=O)c1sc([N+](=O)[O-])cc1C2=O`, the figures for the MIC80 in data set [11] and in data set [12] were 0.5 µg/mL (≈ 1.82 µM) and 0.25 µg/mL (≈ 0.912 µM), respectively.
